Data taken from patent publication US20250188059A1, “NOVEL COMPOUND AND USE THEREOF FOR INHIBITING CHECKPOINT KINASE 2” (ARUM THERAPEUTICS INC, priority 2022, published 2025).
Like-named read-outs stand apart in the source and are kept apart here.

Experiments:
[1] = test system: human breast cancer cell line MCF-7; assay: Cancer cell growth inhibition test (CellTiter-Glo); assay type: cell-based; details: MCF-7, 72 hours, graded, read-out: Celltiter glo analysis (IC50)
Experimental: The human breast cancer cell line MCF-7 was treated with trypsin and harvested. The number of cells was counted, and about 3000 cells/80 μl per well were inoculated into a 96 well plate (Corning) and then incubated in a 37° C. incubator for 24 hours. Thereafter, the example compounds were diluted in a culture solution at various concentrations, and each well was treated with 20 μl and stored in a cell culture incubator for 72 hours. In the case of the group administered in combination, the example compounds and cisplatin or doxorubicin were diluted in a culture solution at various concentrations, and each well was treated with 20 μl. After 72 hours, each well was treated with 30 μl of CellTiter-Glo solution (Promega), and the luminescence was read on a Victor3 multi label reader (PerkinElmer).
Relative viability (%)=(value of each test well/value of well treated with DMSO alone)×100
The results obtained for each concentration for each example compound were the average values obtained from three wells, and PRIZM software was used for analysis of the results.

Chk1 kinase = Chk1 kinase (Homo sapiens (Human), UniProt O14757); assay: Chk1 kinase inhibitory activity (LanthaScreen TR-FRET); assay type: biochemical; details: graded
Experimental: (§1) The compounds of Examples 1 to 66 were diluted at various concentrations and transferred to a 384-well plate by 5 μl, and 10 μl of a mixed solution (2×) of Chk1 kinase (Thermo, P3040) or Chk2 kinase (Thermo, PV3367) and a substrate (Thermo, PV3508) was added to wells treated with the compounds. 5 μl of an ATP solution at a 4× concentration was added to the test well and reacted at room temperature for 1 hour. 20 μl of LanthaScreen Terbium-CREB p-Ser 133 antibody (Thermo, PV3542) was added to the reaction well and incubated at room temperature for 30 minutes. Conversion data was measured by an EnVision 2014 multi label reader (PerkinElmer). The activity for each concentration was determined by the ratio (FRET ratio=FR) of the value obtained by dividing the value at 520 nm by the value at 490 nm among the emission wavelength values for each wavelength (Em520/Em490). The results obtained for each concentration of the compounds were the average values obtained in two wells, and the IC50 values of the compounds were calculated using PRIZM software for analysis of the results. IC50 in Table 7 was graded as follows.

Chk2 kinase = Chk2 kinase (Homo sapiens (Human), UniProt O96017); assay: Chk2 kinase inhibitory activity (LanthaScreen TR-FRET); assay type: biochemical; details: graded
Experimental: as §1

Chk1 kinase, sequence (O14757 whole entry): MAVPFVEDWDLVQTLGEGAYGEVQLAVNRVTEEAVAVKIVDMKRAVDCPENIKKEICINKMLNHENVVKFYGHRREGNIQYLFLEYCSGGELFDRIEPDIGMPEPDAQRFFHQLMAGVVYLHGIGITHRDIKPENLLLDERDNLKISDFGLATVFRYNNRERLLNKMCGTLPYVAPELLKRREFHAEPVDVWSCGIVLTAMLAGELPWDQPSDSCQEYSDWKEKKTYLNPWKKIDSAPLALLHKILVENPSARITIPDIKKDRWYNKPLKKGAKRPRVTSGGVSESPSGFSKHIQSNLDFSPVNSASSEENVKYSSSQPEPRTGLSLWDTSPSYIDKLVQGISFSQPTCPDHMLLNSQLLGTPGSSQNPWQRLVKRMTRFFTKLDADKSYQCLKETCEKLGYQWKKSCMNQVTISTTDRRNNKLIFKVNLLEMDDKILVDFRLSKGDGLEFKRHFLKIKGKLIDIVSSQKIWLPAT
Chk2 kinase, sequence (O96017 whole entry): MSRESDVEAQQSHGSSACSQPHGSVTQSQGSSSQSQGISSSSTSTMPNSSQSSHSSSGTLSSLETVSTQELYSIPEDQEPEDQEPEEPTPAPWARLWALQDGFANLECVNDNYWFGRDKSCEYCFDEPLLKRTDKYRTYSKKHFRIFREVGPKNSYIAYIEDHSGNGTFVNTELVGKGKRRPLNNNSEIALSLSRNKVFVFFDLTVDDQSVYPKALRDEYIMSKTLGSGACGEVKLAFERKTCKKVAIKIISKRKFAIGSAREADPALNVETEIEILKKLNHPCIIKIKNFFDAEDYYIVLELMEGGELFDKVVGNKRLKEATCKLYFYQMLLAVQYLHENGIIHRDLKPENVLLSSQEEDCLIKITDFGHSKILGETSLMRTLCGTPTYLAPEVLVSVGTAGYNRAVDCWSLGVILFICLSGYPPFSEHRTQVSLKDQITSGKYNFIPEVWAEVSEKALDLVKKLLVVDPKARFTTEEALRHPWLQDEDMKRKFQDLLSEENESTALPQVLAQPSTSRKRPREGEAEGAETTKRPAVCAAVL

Structure (SMILES)	IC50 ([1]; Homo sapiens, MCF7, 72 h) [µM]	IC50 (Chk1 kinase) [nM]	IC50 (Chk2 kinase) [nM]	IC50 [1] [µM]
Cn1cc(-c2ccc(F)c(-c3cnc(N)c(C(=O)NC4CCC5(CC5)NC4)n3)c2)cn1 (racemic) [Example 40, 3-amino-6-(2-fluoro-5-(1-methyl-1H-pyrazol-4-yl)phenyl)-N-(4-azaspiro[2.5]octan-6-yl) pyrazine-2-carboxamide]	> 100	10 to 100	≤ 10	
CC1(C)Cc2c(-c3ccc(F)c(-c4cnc(N)c(C(=O)N[C@H]5CCC6(CC6)NC5)n4)c3)cnn2C1 (stereo in doubt) [Example 66, 3-amino-6-(5-(5,5-dimethyl-5,6-dihydro-4H-pyrrolo[1,2-b]pyrazol-3-yl)-2-fluorophenyl)-N-(4-azaspiro[2.5]octan-6-yl)pyrazine-2-carboxamide]		> 1000	10 to 100	≤ 10
Nc1ncc(-c2cc(-c3cnn(CC(F)(F)F)c3)ncc2F)nc1C(=O)N[C@@H]1CNC[C@@H](F)C1 [Example 2, 3-amino-6-(5-fluoro-2-(1-(2,2,2-trifluoroethyl)-1H-pyrazol-4-yl)pyridin-4-yl)-N-((3S,5S)-5-fluoropiperidin-3-yl)pyrazine-2-carboxamide]	10 to 100	100 to 1000	10 to 100	
N#CCn1cc(-c2cccc(-c3cnc(N)c(C(=O)N[C@@H]4CNC[C@@H](F)C4)n3)c2)cn1 [Example 26, 3-amino-6-(3-(1-(cyanomethyl)-1H-pyrazol-4-yl)phenyl)-N-((3S,5S)-5-fluoropiperidin-3-yl) pyrazine-2-carboxamide]	> 100	100 to 1000	10 to 100	
CC1(C)Cc2c(-c3nccc(-c4cnc(N)c(C(=O)NC5CNC[C@@H](F)C5)n4)n3)cnn2C1 (stereo partly drawn) [Example 64, 3-amino-6-(2-(5,5-dimethyl-5,6-dihydro-4H-pyrrolo[1,2-b]pyrazol-3-yl)pyrimidin-4-yl)-N-((3S,5S)-5-fluoropiperidin-3-y)pyrazine-2-carboxamide]	10 to 100	> 1000	≤ 10	
N#CCn1cc(-c2cccc(-c3cnc(N)c(C(=O)N[C@@H]4CNCC[C@H]4O)n3)c2)cn1 [Example 25, 3-amino-6-(3-(1-(cyanomethyl)-1H-pyrazol-4-yl)phenyl)-N-((3R,4R)-4-hydroxypiperidin-3-yl)pyrazine-2-carboxamide]	> 100	> 1000	10 to 100	
CC1(C)Cc2c(-c3ccc(F)c(-c4cnc(N)c(C(=O)N[C@H]5CCC6(CC6)NC5)n4)c3)cnn2C1 [Example 46, (S)-3-amino-6-(5-(5,5-dimethyl-5,6-dihydro-4H-pyrrolo[1,2-b]pyrazol-3-yl)-2-fluorophenyl)-N-(4-azaspiro[2.5]octan-6-yl)pyrazine-2-carboxamide]	10 to 100	> 1000	10 to 100	
CC1(C)Cc2c(-c3cccc(-c4cnc(N)c(C(=O)N[C@@H]5CNCC(F)(F)C5)n4)c3)cnn2C1 [Example 59]	≤ 10	> 1000	10 to 100	
Cn1cc(-c2cccc(-c3cnc(N)c(C(=O)N[C@H]4CCCNC4)n3)c2)cn1 [Example 16, (S)-3-amino-6-(3-(1-methyl-1H-pyrazol-4-yl)phenyl)-N-(piperidin-3-yl)pyrazine-2-carboxamide]	10 to 100	10 to 100	≤ 10	
Nc1ncc(-c2nccc(-c3cnn(CC(F)(F)F)c3)n2)nc1C(=O)N[C@H]1CCCNC1 [Example 39, (S)-3-amino-N-(piperidin-3-yl)-6-(4-(1-(2,2,2-trifluoroethy)-1H-pyrazol-4-yl)pyrimidin-2-yl)pyrazine-2-carboxamide]	10 to 100	100 to 1000	≤ 10	
Nc1ncc(-c2cc(-c3cnn(CC(F)(F)F)c3)ncc2F)nc1C(=O)N[C@H]1CCCNC1 [Example 1, (S)-3-amino-6-(5-fluoro-2-(1-(2,2,2-trifluoroethyl)-1H-pyrazol-4-yl)pyridin-4-yl)-N-(piperidin-3-yl) pyrazine-2-carboxamide]	10 to 100		10 to 100	
CC1(C)Cc2c(-c3ccc(O)c(-c4cnc(N)c(C(=O)N[C@@H]5CNC[C@H]5O)n4)c3)cnn2C1 [Example 57, 3-amino-6-(5-(5,5-dimethyl-5,6-dihydro-4H-pyrrolo[1,2-b]pyrazol-3-yl)-2-hydroxyphenyl)-N-((3R,4R)-4-hydroxypyrrolidin-3-yl)pyrazine-2-carboxamide]	> 100		10 to 100	
CC1(C)Cc2c(-c3cc(-c4cnc(N)c(C(=O)N[C@H]5CCC6(CC6)NC5)n4)ccn3)cnn2C1 [Example 50, (S)-3-amino-6-(2-(5,5-dimethyl-5,6-dihydro-4H-pyrrolo[1,2-b]pyrazol-3-yl)pyridin-4-yl)-N-(4-azaspiro[2.5]octan-6-yl)pyrazine-2-carboxamide]	10 to 100		≤ 10	
CC1(C)Cc2c(-c3cccc(-c4cnc(N)c(C(=O)N[C@@H]5CNC[C@H]5O)n4)c3)cnn2C1 [Example 60, 3-amino-6-(3-(5,5-dimethyl-5,6-dihydro-4H-pyrrolo[1,2-b]pyrazol-3-yl)phenyl)-N-((3R,4R)-4-hydroxypyrrolidin-3-yl)pyrazine-2-carboxamide]	> 100		≤ 10	
Nc1ncc(-c2cc(-c3cnn(CC(F)(F)F)c3)ccc2O)nc1C(=O)N[C@H]1CCCNC1 [Example 24, (S)-3-amino-6-(2-hydroxy-5-(1-(2,2,2-trifluoroethyl)-1H-pyrazol-4-yl)phenyl)-N-(piperidin-3-yl) pyrazine-2-carboxamide]	10 to 100		≤ 10	
CC1(C)Cc2c(-c3cccc(-c4cnc(N)c(C(=O)N[C@@H]5CNCC[C@H]5O)n4)c3)cnn2C1 [Example 52, 3-amino-6-(3-(5,5-dimethyl-5,6-dihydro-4H-pyrrolo[1,2-b]pyrazol-3-yl)phenyl)-N-((3R,4R)-4-hydroxypiperidine-3-yl)pyrazine-2-carboxamide]	10 to 100		10 to 100	

The remaining lines, values ahead:

IC50 ([1]; Homo sapiens, MCF7, 72 h) [µM]	IC50 (Chk1 kinase) [nM]	IC50 (Chk2 kinase) [nM]	IC50 [1] [µM]	Structure (SMILES)
10 to 100	10 to 100	≤ 10		Nc1ncc(-c2ccnc(-c3cnn(CC(F)(F)F)c3)c2)nc1C(=O)N[C@H]1CCCNC1 [Example 21, (S)-3-amino-N-(piperidin-3-yl)-6-(2-(1-(2,2,2-trifluoroethyl)-1H-pyrazol-4-yl)pyridin-4-yl)pyrazine-2-carboxamide]
> 100	10 to 100	≤ 10		CC(C)(O)Cn1cc(-c2cccc(-c3cnc(N)c(C(=O)N[C@H]4CCCNC4)n3)c2)cn1 [Example 30, (S)-3-amino-6-(3-(1-(2-hydroxy-2-methylpropyl)-1H-pyrazol-4-yl)phenyl)-N-(piperidin-3-yl)pyrazine-2-carboxamide]
10 to 100	10 to 100	≤ 10		CC(C)(O)Cn1cc(-c2cccc(-c3cnc(N)c(C(=O)N[C@@H]4CNC[C@@H](F)C4)n3)c2)cn1 [Example 29, 3-amino-N-((3S,5S)-5-fluoropiperidin-3-yl)-6-(3-(1-(2-hydroxy-2-methylpropyl)-1H-pyrazol-4-yl)phenyl)pyrazine-2-carboxamide]
	10 to 100			CC(C)(O)Cn1cc(-c2cc(-c3cnc(N)c(C(=O)N[C@@H]4CNC[C@@H](F)C4)n3)ccn2)cn1 [Example 34, 3-amino-N-((3S,5S)-5-fluoropiperidin-3-yl)-6-(2-(1-(2-hydroxy-2-methylpropyl)-1H-pyrazol-4-yl)pyridin-4-yl)pyrazine-2-carboxamide]
10 to 100		≤ 10		CC(C)(O)Cn1cc(-c2cc(-c3cnc(N)c(C(=O)N[C@H]4CCC5(CC5)NC4)n3)ccn2)cn1 [Example 7, (S)-3-amino-6-(2-(1-(2-hydroxy-2-methylpropyl)-1H-pyrazol-4-yl)pyridin-4-yl)-N-(4-azaspiro[2.5]octan-6-yl)pyrazine-2-carboxamide]
10 to 100		> 1000		CC(C)(O)Cn1cc(-c2cc(-c3cnc(N)c(C(=O)N[C@@H]4CNC[C@@H](F)C4)n3)c(F)cn2)cn1 [Example 22, 3-amino-6-(5-fluoro-2-(1-(2-hydroxy-2-methylpropyl)-1H-pyrazol-4-yl)pyridin-4-yl)-N-((3S,5S)-5-fluoropiperidin-3-yl)pyrazine-2-carboxamide]
		≤ 10	10 to 100	CC(C)(O)Cn1cc(-c2cc(-c3cnc(N)c(C(=O)NC4CNC[C@@H](F)C4)n3)ccn2)cn1 (stereo partly drawn) [Example 6, 3-amino-N-((3S,5S)-5-fluoropiperidin-3-yl)-6-(2-(1-(2-hydroxy-2-methylpropyl)-1H-pyrazol-4-yl)pyridin-4-yl)pyrazine-2-carboxamide]
